The test system of one data set is EA.hy 926. Description: Antiangiogenic activity in human EA.hy 926 cells measured after 24 hrs by MTT assay. The settings on record: EA.hy 926, 24 h.
Data set [1] has as its target Vascular endothelial growth factor receptor 2 (Homo sapiens, UniProt P35968). Description: Inhibition of recombinant human N-terminal GST-tagged VEGFR2 (789 to end residues) expressed in baculovirus infected Sf9 insect cells using Poly (4:1 Glu, Tyr) as substrate incubated for 1 hr by ADP-Glo luminescent assay.
The next data set has as its system HEK293. As to the kind of experiment: Cytotoxicity against HEK293 cells measured after 24 hrs by MTT assay. It counts as cell-based. The settings on record: human, hek293, 24 h.

Sequence of Vascular endothelial growth factor receptor 2 (P35968 whole entry): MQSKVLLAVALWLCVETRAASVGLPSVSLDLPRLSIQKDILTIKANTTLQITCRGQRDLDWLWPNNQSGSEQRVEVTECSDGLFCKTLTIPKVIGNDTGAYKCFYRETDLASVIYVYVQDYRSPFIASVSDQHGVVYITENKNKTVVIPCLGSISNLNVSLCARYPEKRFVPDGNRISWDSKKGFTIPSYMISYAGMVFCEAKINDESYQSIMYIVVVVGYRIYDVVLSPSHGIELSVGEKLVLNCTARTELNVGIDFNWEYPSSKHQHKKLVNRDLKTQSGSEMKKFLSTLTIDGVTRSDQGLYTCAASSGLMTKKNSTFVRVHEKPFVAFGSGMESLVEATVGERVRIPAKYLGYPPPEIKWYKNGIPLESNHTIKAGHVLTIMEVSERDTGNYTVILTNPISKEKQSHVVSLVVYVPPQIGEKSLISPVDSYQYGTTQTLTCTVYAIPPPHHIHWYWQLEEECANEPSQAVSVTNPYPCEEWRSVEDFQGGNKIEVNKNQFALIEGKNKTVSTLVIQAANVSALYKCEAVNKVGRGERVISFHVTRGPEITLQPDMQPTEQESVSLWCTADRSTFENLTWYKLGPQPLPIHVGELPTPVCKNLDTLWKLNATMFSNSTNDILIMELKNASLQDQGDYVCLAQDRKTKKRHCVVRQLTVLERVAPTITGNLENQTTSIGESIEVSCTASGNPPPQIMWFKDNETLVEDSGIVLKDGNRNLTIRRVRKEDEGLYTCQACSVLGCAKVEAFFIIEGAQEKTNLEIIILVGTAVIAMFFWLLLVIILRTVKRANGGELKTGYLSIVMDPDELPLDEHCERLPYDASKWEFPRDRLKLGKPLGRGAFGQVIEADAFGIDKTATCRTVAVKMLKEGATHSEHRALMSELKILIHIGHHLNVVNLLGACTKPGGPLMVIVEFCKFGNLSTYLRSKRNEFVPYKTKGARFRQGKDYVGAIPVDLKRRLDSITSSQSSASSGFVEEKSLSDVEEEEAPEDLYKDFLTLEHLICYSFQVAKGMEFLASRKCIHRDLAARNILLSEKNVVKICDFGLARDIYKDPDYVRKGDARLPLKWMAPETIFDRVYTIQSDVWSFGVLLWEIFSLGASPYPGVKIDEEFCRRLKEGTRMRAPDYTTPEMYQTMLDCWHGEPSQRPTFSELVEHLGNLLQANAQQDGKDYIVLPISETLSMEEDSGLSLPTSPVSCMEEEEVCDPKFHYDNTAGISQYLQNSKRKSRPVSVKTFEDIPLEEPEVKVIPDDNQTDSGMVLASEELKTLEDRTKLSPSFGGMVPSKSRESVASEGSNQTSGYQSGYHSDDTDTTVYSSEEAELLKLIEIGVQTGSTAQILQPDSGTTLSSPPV

`CC(C)c1cccc(NC(=O)Nc2cccc(-c3cccc4[nH]nc(N)c34)c2)c1`: the IC50 with EA.hy 926 was 51.6 µM.

As for `Cc1ncsc1-c1ccc(CNC(=O)[C@@H]2C[C@@H](O)CN2C(=O)[C@@H](NC(=O)CCCCCC(=O)n2nc(N)c3c(-c4cccc(NC(=O)Nc5cccc(C(C)C)c5)c4)cccc32)C(C)(C)C)cc1`, the IC50 in data set [1] was above 1000 nM; with EA.hy 926, above 100 µM. For the same compound, in the data set on HEK293, the Activity entry is reported as “Non-Toxic”.

Take `Cc1ncsc1-c1ccc(CNC(=O)[C@@H]2C[C@@H](O)CN2C(=O)[C@@H](NC(=O)CCCCCCCCCCCCCCC(=O)n2nc(N)c3c(-c4cccc(NC(=O)Nc5cccc(C(C)C)c5)c4)cccc32)C(C)(C)C)cc1`: the figures for the IC50 (in data set [1]; with EA.hy 926) were above 1000 nM and above 100 µM, respectively. For the same compound, in the data set on HEK293, the Activity result is reported as “Non-Toxic”.

For `Cc1ccc(F)c(NC(=O)Nc2ccc(-c3cccc4c3c(N)nn4C(=O)CCCCCC(=O)N[C@H](C(=O)N3C[C@H](O)C[C@H]3C(=O)NCc3ccc(-c4scnc4C)cc3)C(C)(C)C)cc2)c1`, the IC50 in data set [1] was above 1000 nM; in the data set on EA.hy 926 it was 133 µM. Besides, in the data set with HEK293, the Activity result was “Non-Toxic”.

These data come from ChEMBL document CHEMBL4765413, “Discovery of novel anti-angiogenesis agents. Part 11: Development of PROTACs based on active molecules with potency of promoting vascular normalization” (Eur J Med Chem, 2020).
